{
  "source": "PubChem BioAssay AID250",
  "about": "(DTP/NCI, 2004)",
  "key": {"[1]": {"tested_on": "BDF1 mice, L1210 leukemia sc", "assay": "NCI In Vivo Anticancer Drug Screen. Data for tumor model L1210 Leukemia (subcutaneous) in B6D2F1 (BDF1) mice", "conditions": "endpoint: mean tumor weight, vehicle: water, higher = larger tumour", "outline": "(§1)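 Transplantable tumor-bearing mice; survival or tumor size recorded; result = T/C, treated vs vehicle control.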"}, "[2]": {"tested_on": "BDF1 mice, L1210 leukemia sc, survival T/C", "assay": "NCI In Vivo Anticancer Drug Screen. Data for tumor model L1210 Leukemia (subcutaneous) in B6D2F1 (BDF1) mice", "conditions": "endpoint: median survival time, higher = longer survival", "outline": "as §1"}},
  "note": "“And” between values parts separate entries of the source, which are not always exact repeats. Equal entries are not always repeated. Inconclusive results and toxic doses are left out.",
  "data": [
    {"smiles": "O=C(NO)c1ccncc1", "values": [
      {"measurement": "T/C", "setting": "[1]; dose: 67.0 mg/kg/injection, schedule: Q#B X027 (ip)", "result": "68 % of control"},
      {"measurement": "T/C", "setting": "[1]; dose: 133.0 mg/kg/injection, schedule: Q#B X027 (ip)", "result": "58 % of control"},
      {"measurement": "T/C", "setting": "[1]; dose: 200.0 mg/kg/injection, schedule: Q01DX009 (ip)", "result": "60 % of control"},
      {"measurement": "T/C", "setting": "[1]; dose: 200.0 mg/kg/injection, schedule: Q#B X027 (ip)", "result": "57 % of control"},
      {"measurement": "T/C", "setting": "[1]; dose: 267.0 mg/kg/injection, schedule: Q#B X027 (ip)", "result": "41 % of control"},
      {"measurement": "T/C", "setting": "[2]; dose: 67.0 mg/kg/injection, schedule: Q#B X027 (ip), vehicle: water", "result": "108 % of control"},
      {"measurement": "T/C", "setting": "[2]; dose: 133.0 mg/kg/injection, schedule: Q#B X027 (ip), vehicle: water", "result": "108 % of control"},
      {"measurement": "T/C", "setting": "[2]; dose: 200.0 mg/kg/injection, schedule: Q01DX009 (ip), vehicle: water", "result": "108 % of control"},
      {"measurement": "T/C", "setting": "[2]; dose: 200.0 mg/kg/injection, schedule: Q#B X027 (ip), vehicle: water", "result": "116 % of control"},
      {"measurement": "T/C", "setting": "[2]; dose: 267.0 mg/kg/injection, schedule: Q#B X027 (ip), vehicle: water", "result": "108 % of control"}
    ]},
    {"smiles": "O=C(O)c1[nH]c(=O)[nH]c(=O)c1F", "values": [
      {"measurement": "T/C", "setting": "[2]; dose: 2.5 mg/kg/injection, schedule: Q01DX Z (sc), vehicle: methylcellulose (MC)", "result": "105 % of control"},
      {"measurement": "T/C", "setting": "[2]; dose: 8.0 mg/kg/injection, schedule: Q01DX Z (sc), vehicle: saline", "result": "166 % of control"},
      {"measurement": "T/C", "setting": "[2]; dose: 10.0 mg/kg/injection, schedule: Q01DX Z (sc), vehicle: methylcellulose (MC)", "result": "158 % of control"},
      {"measurement": "T/C", "setting": "[2]; dose: 16.0 mg/kg/injection, schedule: Q01DX Z (sc), vehicle: saline", "result": "150 % of control"},
      {"measurement": "T/C", "setting": "[2]; dose: 20.0 mg/kg/injection, schedule: Q01DX Z (sc), vehicle: methylcellulose (MC)", "result": "164 % of control"},
      {"measurement": "T/C", "setting": "[2]; dose: 32.0 mg/kg/injection, schedule: Q01DX Z (sc), vehicle: saline", "result": "166 % of control"},
      {"measurement": "T/C", "setting": "[2]; dose: 40.0 mg/kg/injection, schedule: Q01DX Z (sc), vehicle: methylcellulose (MC)", "result": "176 % of control"},
      {"measurement": "T/C", "setting": "[2]; dose: 64.0 mg/kg/injection, schedule: Q01DX Z (sc), vehicle: saline", "result": "155 % of control"},
      {"measurement": "T/C", "setting": "[2]; dose: 128.0 mg/kg/injection, schedule: Q01DX Z (sc), vehicle: saline", "result": "155 % of control"},
      {"measurement": "T/C", "setting": "[2]; dose: 256.0 mg/kg/injection, schedule: Q01DX Z (sc), vehicle: saline", "result": "150 % of control"}
    ]},
    {"smiles": "CN(C)CCN(Cc1ccccc1)c1ccccn1", "values": [
      {"measurement": "T/C", "setting": "[2]; dose: 16.0 mg/kg/injection, schedule: Q01DX001 (sc), vehicle: saline", "result": "95 % of control and 100 % of control"},
      {"measurement": "T/C", "setting": "[2]; dose: 20.0 mg/kg/injection, schedule: Q01DX001 (sc), vehicle: saline", "result": "97 % of control and 100 % of control"},
      {"measurement": "T/C", "setting": "[2]; dose: 24.0 mg/kg/injection, schedule: Q01DX001 (sc), vehicle: saline", "result": "96 % of control and 100 % of control"},
      {"measurement": "T/C", "setting": "[2]; dose: 30.0 mg/kg/injection, schedule: Q01DX001 (sc), vehicle: saline", "result": "98 % of control and 100 % of control"}
    ]},
    {"smiles": "O=C(Nc1ccc(C2=NCCCN2)cc1)c1ccc(C(=O)Nc2ccc(C3=NCCCN3)cc2)nc1", "values": [
      {"measurement": "T/C", "setting": "[2]; dose: 3.0 mg/kg/injection, schedule: Q01DX Z (sc), vehicle: water", "result": "100 % of control"},
      {"measurement": "T/C", "setting": "[2]; dose: 5.0 mg/kg/injection, schedule: Q01DX Z (sc), vehicle: water", "result": "100 % of control"},
      {"measurement": "T/C", "setting": "[2]; dose: 8.4 mg/kg/injection, schedule: Q01DX Z (sc), vehicle: water", "result": "100 % of control"},
      {"measurement": "T/C", "setting": "[2]; dose: 14.0 mg/kg/injection, schedule: Q01DX Z (sc), vehicle: water", "result": "88 % of control"},
      {"measurement": "T/C", "setting": "[2]; dose: 23.0 mg/kg/injection, schedule: Q01DX Z (sc), vehicle: water", "result": "100 % of control"}
    ]},
    {"smiles": "CN(C)N=Nc1ccc(CCCC(=O)NN)cc1", "values": [
      {"measurement": "T/C", "setting": "[2]; dose: 23.0 mg/kg/injection, schedule: Q01DX Z (sc), vehicle: carboxymethylcellulose (CMC)", "result": "109 % of control"},
      {"measurement": "T/C", "setting": "[2]; dose: 39.0 mg/kg/injection, schedule: Q01DX Z (sc), vehicle: carboxymethylcellulose (CMC)", "result": "118 % of control"},
      {"measurement": "T/C", "setting": "[2]; dose: 65.0 mg/kg/injection, schedule: Q01DX Z (sc), vehicle: carboxymethylcellulose (CMC)", "result": "109 % of control"},
      {"measurement": "T/C", "setting": "[2]; dose: 108.0 mg/kg/injection, schedule: Q01DX Z (sc), vehicle: carboxymethylcellulose (CMC)", "result": "109 % of control"},
      {"measurement": "T/C", "setting": "[2]; dose: 180.0 mg/kg/injection, schedule: Q01DX Z (sc), vehicle: carboxymethylcellulose (CMC)", "result": "113 % of control"}
    ]},
    {"smiles": "COc1ccc2[nH]c3c(C)c4ccncc4c(C)c3c2c1", "values": [
      {"measurement": "T/C", "setting": "[2]; dose: 39.0 mg/kg/injection, schedule: Q01DX Z (sc), vehicle: saline", "result": "100 % of control"},
      {"measurement": "T/C", "setting": "[2]; dose: 65.0 mg/kg/injection, schedule: Q01DX Z (sc), vehicle: saline", "result": "100 % of control"},
      {"measurement": "T/C", "setting": "[2]; dose: 108.0 mg/kg/injection, schedule: Q01DX Z (sc), vehicle: saline", "result": "112 % of control"},
      {"measurement": "T/C", "setting": "[2]; dose: 180.0 mg/kg/injection, schedule: Q01DX Z (sc), vehicle: saline", "result": "116 % of control"},
      {"measurement": "T/C", "setting": "[2]; dose: 300.0 mg/kg/injection, schedule: Q01DX Z (sc), vehicle: saline", "result": "116 % of control"}
    ]},
    {"smiles": "CCCSc1ncnc2nc[nH]c12", "values": [
      {"measurement": "T/C", "setting": "[2]; dose: 38.9 mg/kg/injection, schedule: Q01DX Z (sc), vehicle: methylcellulose (MC)", "result": "100 % of control"},
      {"measurement": "T/C", "setting": "[2]; dose: 64.8 mg/kg/injection, schedule: Q01DX Z (sc), vehicle: methylcellulose (MC)", "result": "100 % of control"},
      {"measurement": "T/C", "setting": "[2]; dose: 108.0 mg/kg/injection, schedule: Q01DX Z (sc), vehicle: methylcellulose (MC)", "result": "100 % of control"},
      {"measurement": "T/C", "setting": "[2]; dose: 180.0 mg/kg/injection, schedule: Q01DX Z (sc), vehicle: methylcellulose (MC)", "result": "120 % of control"},
      {"measurement": "T/C", "setting": "[2]; dose: 300.0 mg/kg/injection, schedule: Q01DX Z (sc), vehicle: methylcellulose (MC)", "result": "110 % of control"}
    ]}
  ]
}
